In PubChem BioAssay (NCI):
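Values below derive from 48-hour exposures of cells grown in 96-well plates, with endpoints linearly interpolated between the two concentrations bracketing the appropriate inhibition level. GI50 = concentration required for 50% inhibition of growth. At the TGI there is no net growth.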

How the values were obtained:
Experiment in all cases: growth of human tumour cells (NCI), 48 h
NCI-H522 lung = tested on: NCI-H522 lung
RPMI-8226 leukemia = tested on: RPMI-8226 leukemia
DU-145 prostate = tested on: DU-145 prostate
OVCAR-5 ovarian = tested on: OVCAR-5 ovarian
EKVX NSCLC = tested on: EKVX NSCLC
UACC-257 melanoma = tested on: UACC-257 melanoma
MCF7 breast = tested on: MCF7 breast
T-47D breast = tested on: T-47D breast
M14 melanoma = tested on: M14 melanoma
PC-3 prostate = tested on: PC-3 prostate

SMILES | TGI (NCI-H522 lung) [µM] | TGI (RPMI-8226 leukemia) [µM] | TGI (DU-145 prostate) [µM] | TGI (OVCAR-5 ovarian) [µM] | TGI (EKVX NSCLC) [µM] | TGI (UACC-257 melanoma) [µM] | TGI (MCF7 breast) [µM] | TGI (T-47D breast) [µM] | TGI (M14 melanoma) [µM] | TGI (PC-3 prostate) [µM] | GI50 (NCI-H522 lung) [µM] | GI50 (RPMI-8226 leukemia) [µM] | GI50 (DU-145 prostate) [µM] | GI50 (OVCAR-5 ovarian) [µM] | GI50 (EKVX NSCLC) [µM] | GI50 (UACC-257 melanoma) [µM] | GI50 (MCF7 breast) [µM] | GI50 (T-47D breast) [µM] | GI50 (M14 melanoma) [µM] | GI50 (PC-3 prostate) [µM]
O=c1[nH]c2ccccc2n1CCCN1CCC(n2c(=O)[nH]c3cc(Cl)ccc32)CC1 | 29.7 | 57.8 | 39.2 | 43.1 | 42.7 | 30.6 | 34.9 | 37.3 | 29.9 | 43.9 |  |  |  |  |  |  |  |  |  | 
COC(=O)C1=C(C(=O)OC)C2(C)C=CC1O2 (stereo not given) | 5.56 | 4.04 | 31.8 | 31.5 | 41.3 | 29.4 | > 100 | 13 | 32.5 | 37.6 |  |  |  |  |  |  |  |  |  | 
O=C1CCC(N2C(=O)c3ccccc3C2=O)C(=O)N1 (stereo not given) | > 100 | > 100 | > 100 | > 100 | > 100 | > 100 | > 100 | > 100 | > 100 | > 100 |  |  |  |  |  |  |  |  |  | 
COC(=O)C1C(O)C(C)C(O)C(C)C=C(C)C2=C3C(=C(C)C(=O)c4c(O)c(c(C)c(OC(C)=O)c43)NC(=O)C(C)=C/C=C\C(C)C(O)C(C)C1O)OCO2 (stereo not given) | 39.4 | 55.3 | > 100 | > 100 | > 100 | 37.4 | 58.7 | > 100 | 68.9 | > 100 |  |  |  |  |  |  |  |  |  | 
S=c1nc(N/N=C/c2ccco2)c2cn[nH]c2[nH]1 | > 100 | > 100 | > 100 | > 100 | > 100 | > 100 | > 100 | 48.1 | > 100 | > 100 | 40.5 | 18.2 | 61.8 | > 100 | 51 | > 100 | 3.6 | 1.95 | > 100 | 57.5
CCN(c1cc(-c2ccc(CN3CCOCC3)cc2)cc(C(=O)NCc2c(C)cc(C)[nH]c2=O)c1C)C1CCOCC1 | > 58.5 | > 59.8 | > 100 | > 82.5 | > 100 | 33.5 | > 100 | 53.4 | 42.3 | > 100 | 23.6 | 20 | 40.6 | 37.7 | 33.6 | 16.2 | 24.2 | 18.9 | 19.9 | 32
C1CC[N-]CC1.CC(=N\O)/C(C)=N/O.CC(=N\O)/C(C)=N/O.OC1[CH-]CCCC1.[Co+2] | 31 | > 100 | > 100 | > 100 | > 100 | > 100 | > 100 | 69.5 | > 100 | > 100 | 15.7 | 42.4 | 69.1 | > 100 | 31.1 | 29.5 | 38.7 | 16.5 | 52.8 | 36.6
COc1ccc(C(O)c2cc3c(N)c(C(=O)Nc4cccc(Cl)c4)sc3nc2C)cc1 (stereo not given) | > 41.9 | > 100 | > 22 | > 48.7 | > 86.9 | 81 | > 67.2 | 31.9 | > 36.5 | > 40.4 | 1.05 | 3.21 | 1.16 | 1.98 | 1.88 | 8.6 | 1.11 | 1.15 | 0.731 | 1.56
